Assay [1] concerns the target AMPA receptors. Briefly: AMPA receptor binding (Honore et al.). To be noted: Table 1.
Assay [2] concerns the target kainate site (non-NMDA receptor). As to the kind of experiment: kainate site binding (London and Coyle). To be noted: Table 1.
Assay [3] concerns the target T1, glycine site of the NMDA receptor (Rattus norvegicus, UniProt P35439).
T1 construct: from tissue
As to the kind of experiment: glycine site of NMDA receptor binding (Jones et al.). To be noted: Table 1.

The subject of assay [4] is mice. As to the kind of experiment: maximal electroshock time course in mice, with and without probenecid pretreatment. Format: in vivo. Here is the method:
FIG. 1 plots maximal electroshock time course with Compound 1 of the invention, with and without probenecid pretreatment in mice.
The graph is the percent of mice protected versus the time in minutes. The solid circle (.circle-solid.) is the compound from Example 1. In a separate experiment the solid square (.box-solid.) the compound from Example 1 (10 mg/kg, IV) was given to mice (n=5) pretreated with probenecid 30 minutes before the compound.

pIC50: −log10 of the molar value.

With `Cc1c([N+](=O)[O-])cc2[nH]c(=O)c(=O)n3c2c1CN(C)C(=O)C3` [Example 1, 6-8-Dimethyl-5-nitro-7,8-dihydro-3H-d,8,10a-triaza-cyclo-hepta[de]naphthalene-1,2,9-trione], the pIC50 in assay [1] is 6.07; in assay [3], 6.70. Also, the “IC50 KA” value in assay [2] turned out to be 1550 nM. Moreover, in assay [4] (10 mg/kg IV, n=5 mice, probenecid 30 minutes before the compound), the “effect of probenecid pretreatment on protection against maximal electroshock” value is “positively modulated by ion transporter substrates such as probenecid”. Also, the “protection against maximal electroshock (in words)” value in assay [4] (30 mg/kg IV, 5 mice, percent of mice protected versus time plotted in FIG. 1 only) is “indicative of the in vivo potency”.
Turning to `Cc1c([N+](=O)[O-])cc2[nH]c(=O)c(=O)n3c2c1CN(C)C(=O)C3c1ccccc1` (centres unmarked) [Example 2, 6,8-Dimethyl-5-nitro-10-phenyl-7,8-dihdro-3H-3,8,10a-triaza-cyclohepta(de)morphthalene-1,2,9-trione], the values for the pIC50 in assay [1] and in assay [3] were 5.35 and 6.22, respectively. The “IC50 KA” value in assay [2] is 4900 nM.

Values taken from patent US6063774A, “Tricyclic quinoxaline derivatives as neuroprotective agents” (Warner-Lambert Company, priority 1998, dated 2000).
